In patent US9795597B2, “Cyclopropylamines as LSD1 inhibitors” (GlaxoSmithKline Intellectual Property (No.2) Limited, priority 2011, dated 2017):
Structures can show the parent of a compound that is named as a salt.

Assays:
LSD1 = biological target: T1, LSD1 (Homo sapiens, UniProt O60341); assay: Biochemical assay for LSD-1 activity (luminescence, H3K4 dimethylated peptide substrate); conditions: average of two or more tests; 30 min preincubation of enzyme and compound; read-out: LSD1 PIC50 MEAN (converted)
T1 construct: made in house
Protocol: Biochemical Assay for LSD-1 Activity
The LSD-1 luminescence assay is performed in a buffer containing 25 mM Tris, pH 7.5, 50 mM potassium chloride, 0.02% heat-denatured BSA, 2 mM CHAPS and milliQ ultrapure water. […] The enzyme and test compound are allowed to incubate together for 30 minutes at room temperature. Two microliters of the substrate mix are then added to each well of the plate to initiate the reaction. The plates are covered, protected from light and allowed to incubate for two hours at room temperature. Then, 4 uL of HyPerBlu peroxide detection luminescence reagent (Lumigen/Beckman Coulter, cat# HPB-00005) is added to each well to quench the demethylase reaction and generate the peroxide-dependent luminescence signal. The plates are then incubated for 15-30 minutes in the dark at room temperature prior to being read for Luminescence using a Perkin Elmer Viewlux plate reader. Percent inhibition is calculated based on no compound and no enzyme controls, and inhibition curves are then plotted to determine PIC50 values.

MAO-B = biological target: T2, MAO-B (Homo sapiens, UniProt P27338); assay: Biochemical assay for MAO-B activity (FLINT, benzylamine/amplex red); conditions: average of two or more tests; 30 min preincubation of enzyme and compound; read-out: MAOB PIC50 MEAN (converted)
T2 construct: purchased Gentest-BD Biosciences 456284
T2 sequence (P27338 1-520): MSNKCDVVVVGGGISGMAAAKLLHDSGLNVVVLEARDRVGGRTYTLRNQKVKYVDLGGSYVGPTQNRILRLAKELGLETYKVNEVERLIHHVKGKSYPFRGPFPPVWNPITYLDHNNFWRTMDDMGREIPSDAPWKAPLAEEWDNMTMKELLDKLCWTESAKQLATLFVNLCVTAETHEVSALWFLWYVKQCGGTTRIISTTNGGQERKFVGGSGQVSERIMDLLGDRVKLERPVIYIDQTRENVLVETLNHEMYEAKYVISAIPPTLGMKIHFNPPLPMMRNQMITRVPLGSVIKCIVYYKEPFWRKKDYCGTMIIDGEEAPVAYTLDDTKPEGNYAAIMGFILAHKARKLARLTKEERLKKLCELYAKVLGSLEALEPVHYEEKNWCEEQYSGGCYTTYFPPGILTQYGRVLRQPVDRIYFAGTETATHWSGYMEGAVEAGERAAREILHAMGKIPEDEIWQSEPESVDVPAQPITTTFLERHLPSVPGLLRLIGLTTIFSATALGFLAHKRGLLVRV
Protocol: Biochemical Assay for MAO-B Activity
The MAO-B FLINT assay is performed in a buffer containing 50 mM potassium phospate, pH 7.4, in milliQ ultrapure water. […] The enzyme and test compound are allowed to incubate together for 30 minutes at room temperature. Five microliters of the substrate mix are then added to each well of the plate to initiate the reaction. The plates are covered, protected from light and allowed to incubate for one hour at room temperature. […] Percent inhibition is calculated based on no compound and no enzyme controls, and inhibition curves are then plotted to determine PIC50 values.

IC50 (LSD1) [nM] | IC50 (MAO-B) [nM] | SMILES
6.31 | 25100 | c1ccc(CN2CCC(CN[C@@H]3C[C@H]3c3ccccc3)CC2)cc1 (relative stereo) [Example 8, [trans-2-Phenylcyclopropyl]{[1-(phenylmethyl)-4-piperidinyl]methyl}amine]
15.8 | 50100 | c1ccc([C@@H]2C[C@H]2NCC2CCN(Cc3ccncc3)CC2)cc1 (relative stereo) [Example 33, trans-2-Phenyl-N-((1-(pyridin-4-ylmethyl)piperidin-4-yl)methyl)cyclopropanamine]
15.8 | 31600 | Fc1ccccc1C[N+]1(Cc2ccccc2F)CCC(CN[C@@H]2C[C@H]2c2ccccc2)CC1 (relative stereo) [Example 35, 1,1-Bis(2-fluorobenzyl)-4-(((trans-2-phenylcyclopropyl)amino)methyl)piperidin-1-ium chloride]
100 | 15800 | Cc1cc(CN2CCC(CN[C@@H]3C[C@H]3c3ccccc3)CC2)no1 (relative stereo) [Example 47, trans-N-((1-((5-Methylisoxazol-3-yl)methyl)piperidin-4-yl)methyl)-2-phenylcyclopropanamine]
25.1 | 79400 | O=C(O)CCN1CC[C@H](CN[C@@H]2C[C@H]2c2ccccc2)C1 [Example 150, 3-((R)-3-((((1R,2S)-2-Phenylcyclopropyl)amino)methyl)pyrrolidin-1-yl)propanoic acid]
12.6 | 31600 | OCCN1CCC(CN[C@@H]2C[C@H]2c2ccccc2)CC1 (relative stereo) [Example 11, 2-(4-(((trans-2-Phenylcyclopropyl)amino)methyl)piperidin-1-yl)ethanol]
7.94 | 39800 | c1ccc(C2C[C@@H]2NCC2CCCNC2)cc1 (stereo in doubt) [Example 16, [trans-2-Phenylcyclopropyl](3-piperidinylmethyl)amine]
20 | 12600 | c1ccc(C2C[C@@H]2NCC2CNCCO2)cc1 (stereo in doubt) [Example 25, N-(2-Morpholinylmethyl)-trans-2-phenylcyclopropanamine]
100 | 7940 | O=C(O)CCN1CCC(CN[C@@H]2C[C@H]2c2ccccc2)CC1 [Example 71, 3-(4-((((1R,2S)-2-Phenylcyclopropyl)amino)methyl)piperidin-1-yl)propanoic acid]
6.31 | 15800 | O=S(=O)(Nc1ccc([C@@H]2C[C@H]2NCC2CCNCC2)cc1)c1ccccc1 (relative stereo) [Example 91, N-(4-((trans)-2-((piperidin-4-ylmethyl)amino)cyclopropyl)phenyl)benzenesulfonamide]
10 | 63100 | CC(N[C@H]1CC1c1ccccc1)C1CCNCC1 (stereo in doubt) [Example 24, [trans-2-Phenylcyclopropyl][1-(4-piperidinyl)ethyl]amine]
7.94 | 31600 | OB(O)c1ccc(CN2CCC(CN[C@@H]3C[C@H]3c3ccccc3)CC2)cc1 (relative stereo) [Example 57, (4-((4-(((trans-2-phenylcyclopropyl)amino)methyl)piperidin-1-yl)methyl)phenyl)boronic acid]
200 | 50100 | O=C(O)c1ccc(CN2CCC(CN[C@H]3C[C@@H]3c3ccccc3)CC2)cc1 (relative stereo) [Example 26, 4-((4-(((trans-2-phenylcyclopropyl)amino)methyl)piperidin-1-yl)methyl)benzoic acid]
200 | 63100 | O=C(O)CN1CCC(CN[C@H]2C[C@@H]2c2ccccc2)CC1 (relative stereo) [Example 27, 2-(4-(((trans-2-phenylcyclopropyl)amino)methyl)piperidin-1-yl)acetic acid]
7.94 | 7940 | N[C@H]1CC[C@H](CN[C@@H]2C[C@H]2c2ccccc2)CC1 (relative stereo) [Example 10, trans-4-({[trans-2-Phenylcyclopropyl]amino}methyl)cyclohexanamine]
6.31 | 501 | CS(=O)(=O)c1ccc(CN2CCC(CN[C@@H]3C[C@H]3c3ccccc3)CC2)cc1 (relative stereo) [Example 43, trans-N-((1-(4-(Methylsulfonyl)benzyl)piperidin-4-yl)methyl)-2-phenylcyclopropanamine]
79.4 | 15800 | Cc1noc(C)c1S(=O)(=O)N1CCC(CN[C@@H]2C[C@H]2c2ccccc2)CC1 (relative stereo) [Example 100, trans-N-((1-((3,5-dimethylisoxazol-4-yl)sulfonyl)piperidin-4-yl)methyl)-2-phenylcyclopropanamine]
126 | 39800 | O=C(c1ccccc1)N1CCC(CN[C@@H]2C[C@H]2c2ccccc2)CC1 (relative stereo) [Example 14, Phenyl(4-(((trans-2-phenylcyclopropyl)amino)methyl)piperidin-1-yl)methanone]
20000 | 63100 | CC(=O)N(CC1CCNCC1)[C@@H]1C[C@H]1c1ccccc1 (relative stereo) [Example 17, N-(trans-2-Phenylcyclopropyl)-N-(piperidin-4-ylmethyl)acetamide]
79.4 | 100000 | c1ccc(C2C[C@@H]2NCC2CCCNCC2)cc1 (stereo in doubt) [Example 22, N-(Hexahydro-1H-azepin-4-ylmethyl)-trans-2-phenylcyclopropanamine]
2000 | 15800 | CC(C)(C)OC(=O)N1CCCC(CN[C@H]2CC2c2ccccc2)CC1 (stereo in doubt) [Example 21, 1,1-Dimethylethyl 4-({[trans-2-phenylcyclopropyl]amino}methyl)hexahydro-1H-azepine-1-carboxylate]
316 | 15800 | CC(=O)N1CCC(CN[C@@H]2C[C@H]2c2ccccc2)CC1 (relative stereo) [Example 15, 1-(4-(((trans-2-Phenylcyclopropyl)amino)methyl)piperidin-1-yl)ethanone]
631 | 7940 | CC(C)(C)OC(=O)N1CCC(CN[C@H]2C[C@@H]2c2ccccc2)CC1 [Example 3, 1,1-Dimethylethyl 4-({[(1S,2R)-2-phenylcyclopropyl]amino}methyl)-1-piperidinecarboxylate]
158 | 398 | CC(C)(C)OC(=O)N[C@H]1CC[C@H](CN[C@@H]2C[C@H]2c2ccccc2)CC1 (relative stereo) [Example 9, 1,1-Dimethylethyl[trans-4-({[trans-2-phenylcyclopropyl]amino}methyl)cyclohexyl]carbamate]
12.6 | 31600 | O=C(O)c1ccc(CCCN2CCC(CN[C@@H]3C[C@H]3c3ccccc3)CC2)cc1 [Example 30, 4-{3-[4-({[(1R,2S)-2-Phenylcyclopropyl]amino}methyl)-1-piperidinyl]propyl}benzoic acid 2 HCl]
– | 31600 | CN(CC1CCNCC1)[C@H]1CC1c1ccccc1 (some centres unmarked) [Example 19]

SMILES | IC50 (LSD1) [nM] | IC50 (MAO-B) [nM]
c1ccc([C@@H]2C[C@H]2NCC2CCCCC2)cc1 (relative stereo) [Example 7, trans-N-(Cyclohexylmethyl)-2-phenylcyclopropanamine] | 158 | 398
